Measured values from patent US20130324489A1, “NEW ANTIFUNGAL COMPOSITIONS” (DSM IP ASSETS B.V., priority 2011, published 2013).
“And” between values parts separate entries of the source, which are not always exact repeats. Equal values may be shown once.

Test system: Botrytis cinerea
Experiment: Treatment of wounded strawberries inoculated with Botrytis cinerea (dip, mould growth)
Type: in vivo
Settings: 20° C.
Experimental: Ten fresh, organic strawberries were used per treatment. Each strawberry was wounded with a 0.5 mm long cut and each wound was inoculated with 10 μl of a Botrytis cinerea suspension containing 1×10^5 of spores/ml. […] The antifungal composition also comprised 3.1% (w/w) beeswax, 0.76% (w/w) glycerol, 0.66% (w/w) polyoxyethylene sorbitan monostearate (Tween 60), 0.03% (w/w) methylhydroxyethyl-cellulose (MHEC), 0.02% (w/w) xanthan gum, 0.02% (w/w) anti-foaming agent, 0.15% (w/w) citric acid and 0.01% (w/w) potassium sorbate. The pH of the compositions was 4. A composition without natamycin or procymidone was used as control. The treated strawberries were incubated in a closed box in the dark at 20° C. for 13 days.
During incubation, mould growth on the strawberries was assessed in a twofold manner: (i) the number of moulded strawberries per total of 10 strawberries was counted; and (ii) the antifungal activity (in %) of the individual and combined active ingredients was determined by calculating the reduction in mould growth observed on the strawberries treated with the antifungal composition in comparison to the mould growth on the strawberries treated with the control composition. The expected antifungal activity (E in %) of the combined antifungal composition comprising both active ingredients was calculated according to the Colby equation (Colby, 1967): […]
wherein X and Y are the observed antifungal activities (in %) of the individual active ingredients X and Y, respectively. If the observed antifungal activity (O in %) of the combination exceeds the expected antifungal activity (E in %) of the combination and the synergy factor O/E is thus >1.0, the combined application of the active ingredients leads to a synergistic antifungal effect.
The treated strawberries were assessed on mould growth after 4, 5 and 7 days of incubation according to the two methods described in Example 3.
The treated strawberries were incubated for 9 days and, as of day 5, assessed on mould growth daily. The antifungal activity (in %) of the individual and combined active ingredients was determined according to the method described in Example 3.
During incubation, the treated strawberries were assessed on mould growth according to the two methods described in Example 3.

[1] = 250 ppm natamycin, 250 ppm procymidone or both, day 4
[2] = 250 ppm natamycin, 250 ppm procymidone or both, day 5
[3] = 250 ppm natamycin, 250 ppm procymidone or both, day 6
[4] = 250 ppm natamycin, 250 ppm procymidone or both, day 7
[5] = 250 ppm natamycin, 250 ppm procymidone or both, day 8
[6] = 250 ppm natamycin, 250 ppm procymidone or both, day 9
[7] = 250 ppm natamycin, 250 ppm procymidone or both, day 10
[8] = 250 ppm natamycin, 250 ppm procymidone or both, day 12
[9] = 250 ppm natamycin, 500 ppm procymidone or both, day 5
[10] = 250 ppm natamycin, 500 ppm procymidone or both, day 6
[11] = 250 ppm natamycin, 500 ppm procymidone or both, day 7
[12] = 250 ppm natamycin, 500 ppm procymidone or both, day 8
[13] = 250 ppm natamycin, 500 ppm procymidone or both, day 9
[14] = 500 ppm natamycin, 1000 ppm procymidone or both, day 4
[15] = 500 ppm natamycin, 1000 ppm procymidone or both, day 5
[16] = 500 ppm natamycin, 1000 ppm procymidone or both, day 7
[17] = 500 ppm natamycin, 2000 ppm procymidone or both, day 5
[18] = 500 ppm natamycin, 2000 ppm procymidone or both, day 6
[19] = 500 ppm natamycin, 2000 ppm procymidone or both, day 7
[20] = 500 ppm natamycin, 2000 ppm procymidone or both, day 8
[21] = 500 ppm natamycin, 2000 ppm procymidone or both, day 8-10
[22] = 500 ppm natamycin, 2000 ppm procymidone or both, day 9
[23] = 500 ppm natamycin, 2000 ppm procymidone or both, day 10
[24] = 500 ppm natamycin, 2000 ppm procymidone or both, day 12
[25] = 500 ppm natamycin, 2000 ppm procymidone or both, day 13

C[C@@H]1C/C=C/C=C/C=C/C=C/[C@H](O[C@@H]2O[C@H](C)[C@@H](O)[C@H](N)[C@@H]2O)C[C@@H]2O[C@](O)(C[C@@H](O)C[C@H]3O[C@@H]3/C=C/C(=O)O1)C[C@H](O)[C@H]2C(=O)O [Natamycin, natamycin]
Number of moulded strawberries/total number of 10 strawberries [1]: 4 and 4/10
Observed antifungal activity O (%) [1]: 53%
Number of moulded strawberries/total number of 10 strawberries [2]: 7 and 7/10
Observed antifungal activity O (%) [2]: 34%
Number of moulded strawberries/total number of 10 strawberries [3]: 9 and 9/10
Observed antifungal activity O (%) [3]: 15%
Number of moulded strawberries/total number of 10 strawberries [4]: 10 and 10/10
Observed antifungal activity O (%) [4]: 11%
Number of moulded strawberries/total number of 10 strawberries [5]: 10 and 10/10
Observed antifungal activity O (%) [5]: 10%
Number of moulded strawberries/total number of 10 strawberries [6]: 10 and 10/10
Observed antifungal activity O (%) [6]: 5%
Observed antifungal activity O (%) [7]: 3%
Observed antifungal activity O (%) [8]: 0%
Observed antifungal activity O (%) [9]: 34%
Observed antifungal activity O (%) [10]: 15%
Observed antifungal activity O (%) [11]: 11%
Observed antifungal activity O (%) [12]: 10%
Observed antifungal activity O (%) [13]: 5%
Observed antifungal activity O (%) [14]: 36%
Number of moulded strawberries/total number of 10 strawberries [15]: 9 and 9/10
Observed antifungal activity O (%) [15]: 12%
Number of moulded strawberries/total number of 10 strawberries [16]: 10 and 10/10
Observed antifungal activity O (%) [16]: 7%
Number of moulded strawberries/total number of 10 strawberries [17]: 9 and 9/10
Observed antifungal activity O (%) [17]: 12%
Number of moulded strawberries/total number of 10 strawberries [18]: 9 and 9/10
Observed antifungal activity O (%) [18]: 4%
Number of moulded strawberries/total number of 10 strawberries [19]: 10 and 10/10
Observed antifungal activity O (%) [19]: 7%
Observed antifungal activity O (%) [20]: 5%
Number of moulded strawberries/total number of 10 strawberries [21]: 10 and 10/10
Observed antifungal activity O (%) [22]: 3%
Observed antifungal activity O (%) [23]: 3%
Number of moulded strawberries/total number of 10 strawberries [24]: 10 and 10/10
Observed antifungal activity O (%) [24]: 0%
Observed antifungal activity O (%) [25]: 0%

CC12CC1(C)C(=O)N(c1cc(Cl)cc(Cl)c1)C2=O (centres unmarked) [Procymidone, procymidone]
Number of moulded strawberries/total number of 10 strawberries [1]: 10 and 10/10
Observed antifungal activity O (%) [1]: 58%
Number of moulded strawberries/total number of 10 strawberries [2]: 10 and 10/10
Observed antifungal activity O (%) [2]: 41%
Number of moulded strawberries/total number of 10 strawberries [3]: 10 and 10/10
Observed antifungal activity O (%) [3]: 34%
Number of moulded strawberries/total number of 10 strawberries [4]: 10 and 10/10
Observed antifungal activity O (%) [4]: 31%
Number of moulded strawberries/total number of 10 strawberries [5]: 10 and 10/10
Observed antifungal activity O (%) [5]: 27%
Number of moulded strawberries/total number of 10 strawberries [6]: 10 and 10/10
Observed antifungal activity O (%) [6]: 13%
Observed antifungal activity O (%) [7]: 10%
Observed antifungal activity O (%) [8]: 5%
Observed antifungal activity O (%) [9]: 39%
Observed antifungal activity O (%) [10]: 26%
Observed antifungal activity O (%) [11]: 20%
Observed antifungal activity O (%) [12]: 20%
Observed antifungal activity O (%) [13]: 17%
Observed antifungal activity O (%) [14]: 69%
Number of moulded strawberries/total number of 10 strawberries [15]: 10 and 10/10
Observed antifungal activity O (%) [15]: 59%
Number of moulded strawberries/total number of 10 strawberries [16]: 10 and 10/10
Observed antifungal activity O (%) [16]: 44%
Number of moulded strawberries/total number of 10 strawberries [17]: 8 and 8/10
Observed antifungal activity O (%) [17]: 63%
Number of moulded strawberries/total number of 10 strawberries [18]: 9 and 9/10
Observed antifungal activity O (%) [18]: 51%
Number of moulded strawberries/total number of 10 strawberries [19]: 10 and 10/10
Observed antifungal activity O (%) [19]: 38%
Observed antifungal activity O (%) [20]: 35%
Number of moulded strawberries/total number of 10 strawberries [21]: 10 and 10/10
Observed antifungal activity O (%) [22]: 23%
Observed antifungal activity O (%) [23]: 13%
Number of moulded strawberries/total number of 10 strawberries [24]: 10 and 10/10
Observed antifungal activity O (%) [24]: 2%
Observed antifungal activity O (%) [25]: 0%
